According to patent US9539260B2, “Dihydro-benzo-oxazine and dihydro-pyrido-oxazine derivatives” (Novartis AG, priority 2012, dated 2017):

What was measured:
PI3K alpha = PI3K alpha (Homo sapiens (Human), UniProt P42336); assay: Enzymatic PI3K alpha isoform inhibition (lipid kinase activity, Kinase-Glo luminescence); format: biochemical; details: Enzymatic assay
In short: (§1)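 IC50s derive from 4-parameter logistic fits of % inhibition across 8 concentrations (usually 10 to 0.003 μM). Lipid kinase reaction: PI3K (10 nM) plus phosphatidylinositol (5 μg/mL) started with 2 μM ATP, stopped near 50% ATP depletion; leftover ATP quantified by Kinase-Glo luminescence.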

PI3K delta = PI3K delta (Homo sapiens (Human), UniProt O00329); assay: Enzymatic PI3K delta isoform inhibition (lipid kinase activity, Kinase-Glo luminescence); format: biochemical; details: Enzymatic assay
In short: as §1

Sequence of PI3K delta (O00329 other isoform, or with tags, fused parts or gaps linker GGGGGG): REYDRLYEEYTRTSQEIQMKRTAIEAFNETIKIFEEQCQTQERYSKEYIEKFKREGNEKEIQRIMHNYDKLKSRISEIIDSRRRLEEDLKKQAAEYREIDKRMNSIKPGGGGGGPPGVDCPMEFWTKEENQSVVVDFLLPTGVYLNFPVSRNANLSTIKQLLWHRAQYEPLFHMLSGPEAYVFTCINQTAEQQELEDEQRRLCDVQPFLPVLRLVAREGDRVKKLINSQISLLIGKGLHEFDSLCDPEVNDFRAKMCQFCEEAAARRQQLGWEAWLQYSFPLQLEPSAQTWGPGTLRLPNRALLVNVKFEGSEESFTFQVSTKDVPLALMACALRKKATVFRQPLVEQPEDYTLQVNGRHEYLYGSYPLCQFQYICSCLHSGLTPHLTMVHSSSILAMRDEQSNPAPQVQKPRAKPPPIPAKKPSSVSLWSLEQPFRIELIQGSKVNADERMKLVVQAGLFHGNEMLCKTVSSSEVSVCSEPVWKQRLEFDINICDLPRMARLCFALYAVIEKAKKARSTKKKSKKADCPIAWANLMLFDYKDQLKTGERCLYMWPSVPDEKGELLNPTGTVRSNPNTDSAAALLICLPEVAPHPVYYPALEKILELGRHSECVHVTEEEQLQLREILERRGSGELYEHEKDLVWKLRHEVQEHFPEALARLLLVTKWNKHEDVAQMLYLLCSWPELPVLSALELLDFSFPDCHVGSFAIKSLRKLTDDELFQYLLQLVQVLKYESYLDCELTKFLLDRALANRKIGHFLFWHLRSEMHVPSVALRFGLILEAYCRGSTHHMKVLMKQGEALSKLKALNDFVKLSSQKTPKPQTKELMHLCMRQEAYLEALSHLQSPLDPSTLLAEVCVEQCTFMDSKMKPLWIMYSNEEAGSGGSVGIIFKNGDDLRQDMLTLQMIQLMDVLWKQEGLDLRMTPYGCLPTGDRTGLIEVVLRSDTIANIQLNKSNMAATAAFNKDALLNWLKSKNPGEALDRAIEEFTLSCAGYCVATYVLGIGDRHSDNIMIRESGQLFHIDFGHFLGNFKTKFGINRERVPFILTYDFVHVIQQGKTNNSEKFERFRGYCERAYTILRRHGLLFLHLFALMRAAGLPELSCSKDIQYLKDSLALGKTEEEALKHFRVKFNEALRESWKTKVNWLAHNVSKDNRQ
Sequence of PI3K alpha (P42336 other isoform, or with tags, fused parts or gaps): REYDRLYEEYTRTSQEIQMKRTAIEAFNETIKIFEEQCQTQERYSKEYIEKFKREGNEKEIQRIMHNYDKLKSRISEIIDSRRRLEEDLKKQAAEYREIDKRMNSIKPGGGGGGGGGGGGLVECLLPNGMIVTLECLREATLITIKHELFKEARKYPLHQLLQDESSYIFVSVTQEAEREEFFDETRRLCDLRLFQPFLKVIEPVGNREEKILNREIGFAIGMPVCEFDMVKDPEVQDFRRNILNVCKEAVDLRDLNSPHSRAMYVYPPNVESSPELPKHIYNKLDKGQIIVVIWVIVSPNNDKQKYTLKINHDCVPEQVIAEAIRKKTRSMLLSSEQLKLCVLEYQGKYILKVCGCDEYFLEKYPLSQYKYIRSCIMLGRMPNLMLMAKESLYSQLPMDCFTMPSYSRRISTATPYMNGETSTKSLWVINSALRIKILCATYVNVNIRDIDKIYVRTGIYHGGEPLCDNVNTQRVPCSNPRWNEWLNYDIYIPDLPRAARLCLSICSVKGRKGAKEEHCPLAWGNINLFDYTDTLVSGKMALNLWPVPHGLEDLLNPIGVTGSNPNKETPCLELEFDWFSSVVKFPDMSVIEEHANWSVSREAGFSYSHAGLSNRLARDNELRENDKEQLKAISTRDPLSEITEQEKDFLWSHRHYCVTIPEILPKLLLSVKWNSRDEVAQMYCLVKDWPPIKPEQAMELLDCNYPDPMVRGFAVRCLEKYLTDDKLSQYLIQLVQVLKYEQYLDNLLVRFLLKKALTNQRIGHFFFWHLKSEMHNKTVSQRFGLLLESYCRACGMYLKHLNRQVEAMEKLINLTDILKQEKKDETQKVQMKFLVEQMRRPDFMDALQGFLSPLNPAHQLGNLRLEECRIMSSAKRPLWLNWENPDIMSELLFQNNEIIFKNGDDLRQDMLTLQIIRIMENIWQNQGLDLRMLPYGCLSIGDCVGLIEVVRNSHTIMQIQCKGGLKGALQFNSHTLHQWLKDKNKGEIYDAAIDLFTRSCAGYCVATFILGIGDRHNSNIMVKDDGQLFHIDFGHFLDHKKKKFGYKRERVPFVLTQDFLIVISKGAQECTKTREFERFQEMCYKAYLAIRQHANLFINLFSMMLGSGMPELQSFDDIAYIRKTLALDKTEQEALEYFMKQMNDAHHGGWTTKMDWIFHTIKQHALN

IC50 (PI3K alpha) [nM]	IC50 (PI3K delta) [nM]	Compound
801	< 3	Cc1cc(N2CCOc3ccc(O[C@H]4CCN(C(=O)C5COCCO5)C4)cc32)cnc1S(C)(=O)=O (stereo partly drawn) [Example B36, [1,4]Dioxan-2-yl-{(S)-3-[4-(6-methanesulfonyl-5-methyl-pyridin-3-yl)-3,4-dihydro-2H-benzo[1,4]oxazin-6-yloxy]-pyrrolidin-1-yl}-methanone]
442	19	COC(=O)N1CC[C@H](Oc2ccc3c(c2)N(c2cnc(OC)c(C#N)c2)CCO3)C1 [Example D11, (S)-3-[4-(5-Cyano-6-methoxy-pyridin-3-yl)-3,4-dihydro-2H-benzo[1,4]oxazin-6-yloxy]-pyrrolidine-1-carboxylic acid methyl ester]
650	9	COc1ncc(N2CCOc3ccc(O[C@H]4CCN(C(=O)CN(C)C)C4)cc32)cc1C#N [Example D6, 5-{6-[(S)-1-(2-Dimethylamino-acetyl)-pyrrolidin-3-yloxy]-2,3-dihydro-benzo[1,4]oxazin-4-yl}-2-methoxy-nicotinonitrile]
118	< 3	COc1ncc(N2CCOc3ccc(O[C@H]4CCN(C(=O)CC#N)C4)cc32)cc1Cl [Example B109, 3-{(S)-3-[4-(5-Chloro-6-methoxy-pyridin-3-yl)-3,4-dihydro-2H-benzo[1,4]oxazin-6-yloxy]-pyrrolidin-1-yl}-3-oxo-propionitrile]
292	5	CCC(=O)N1CC[C@H](Oc2ccc3c(c2)N(c2cnc(OC)c(C)c2)CCO3)C1 [Example A13, 1-{(S)-3-[4-(6-Methoxy-5-methyl-pyridin-3-yl)-3,4-dihydro-2H-benzo[1,4]oxazin-6-yloxy]-pyrrolidin-1-yl}-propan-1-one]
1420	23	COc1cc(N2CCOc3ccc(O[C@H]4CCN(C(=O)C5CCS(=O)(=O)CC5)C4)cc32)cnc1Cl [Example B56, {(S)-3-[4-(6-Chloro-5-methoxy-pyridin-3-yl)-3,4-dihydro-2H-benzo[1,4]oxazin-6-yloxy]-pyrrolidin-1-yl}-(1,1-dioxo-hexahydro-1lambda*6*-thiopyran-4-yl)-methanone]
346	8	COc1ncc(N2CCOc3ccc(O[C@H]4CCN(C(=O)c5ccc(=O)[nH]c5)C4)cc32)cc1C [Example B92, 5-{(S)-3-[4-(6-Methoxy-5-methyl-pyridin-3-yl)-3,4-dihydro-2H-benzo[1,4]oxazin-6-yloxy]-pyrrolidine-1-carbonyl}-1H-pyridin-2-one]
438	9	COc1ncc(N2CCOc3ccc(O[C@H]4CCN(C(=O)c5ccc(=O)n(C)c5)C4)cc32)cc1C [Example B95, 5-{(S)-3-[4-(6-Methoxy-5-methyl-pyridin-3-yl)-3,4-dihydro-2H-benzo[1,4]oxazin-6-yloxy]-pyrrolidine-1-carbonyl}-1-methyl-1H-pyridin-2-one]
804	25	Cc1cnccc1C(=O)N1CC[C@H](Oc2ccc3c(c2)N(c2cnc(S(C)(=O)=O)c(C)c2)CCO3)C1 [Example B67, {(S)-3-[4-(6-Methanesulfonyl-5-methyl-pyridin-3-yl)-3,4-dihydro-2H-benzo[1,4]oxazin-6-yloxy]-pyrrolidin-1-yl}-(3-methyl-pyridin-4-yl)-methanone]
954	72	COc1ncc(N2CCOc3ccc(O[C@H]4CCN(CC5CCN(C)CC5)C4)cc32)cc1C#N [P, 2-Methoxy-5-{6-[(S)-1-(1-methyl-piperidin-4-ylmethyl)-pyrrolidin-3-yloxy]-2,3-dihydro-benzo[1,4]oxazin-4-yl}-nicotinonitrile]
39	< 3	COc1ncc(N2CCOc3cnc(O[C@H]4CCN(C(=O)c5cn(C)cn5)C4)cc32)cc1C(F)F [Example F10, {(S)-3-[1-(5-Difluoromethyl-6-methoxy-pyridin-3-yl)-2,3-dihydro-1H-pyrido[3,4-b][1,4]oxazin-7-yloxy]-pyrrolidin-1-yl}-(1-methyl-1H-imidazol-4-yl)-methanone]
556	< 3	Cc1cc(N2CCOc3ccc(O[C@H]4CCN(C(=O)C5CCOC5)C4)cc32)cnc1S(C)(=O)=O (stereo partly drawn) [Example B52, {(S)-3-[4-(6-Methanesulfonyl-5-methyl-pyridin-3-yl)-3,4-dihydro-2H-benzo[1,4]oxazin-6-yloxy]-pyrrolidin-1-yl}-(tetrahydro-furan-3-yl)-methanone]
148	3	COc1ncc(N2CCOc3ccc(O[C@H]4CCN(C(=O)CS(C)(=O)=O)C4)cc32)cc1Cl [Example B110, 1-{(S)-3-[4-(5-Chloro-6-methoxy-pyridin-3-yl)-3,4-dihydro-2H-benzo[1,4]oxazin-6-yloxy]-pyrrolidin-1-yl}-2-methanesulfonyl-ethanone]
1570	170	Nc1ncc(N2CCOc3ccc(O[C@H]4CCN(C(=O)C5CCOCC5)C4)cc32)cc1C(F)(F)F [Example A23, {(S)-3-[4-(6-Amino-5-trifluoromethyl-pyridin-3-yl)-3,4-dihydro-2H-benzo[1,4]oxazin-6-yloxy]-pyrrolidin-1-yl}-(tetrahydro-pyran-4-yl)-methanone]
477	11	COc1cc(N2CCOc3ccc(O[C@H]4CCN(C(=O)C5COCCO5)C4)cc32)cnc1OC (single isomer, unassigned) [Example H5]
104	14	CCC(=O)N1CC[C@H](Oc2ccc3c(c2)N(c2cnc(N)c(C(F)(F)F)c2)CCO3)C1 [Example A17, 1-{(S)-3-[4-(6-Amino-5-trifluoromethyl-pyridin-3-yl)-3,4-dihydro-2H-benzo[1,4]oxazin-6-yloxy]-pyrrolidin-1-yl}-propan-1-one]
838	12	Cc1cc(N2CCOc3ccc(O[C@H]4CCN(c5ncccn5)C4)cc32)cnc1S(C)(=O)=O [N, 4-(6-Methanesulfonyl-5-methyl-pyridin-3-yl)-6-((S)-1-pyrimidin-2-yl-pyrrolidin-3-yloxy)-3,4-dihydro-2H-benzo[1,4]oxazine]
234	8	COc1ncc(N2CCOc3ccc(O[C@H]4CCN(C(=O)c5cncn5C)C4)cc32)cc1C [Example B88, {(S)-3-[4-(6-Methoxy-5-methyl-pyridin-3-yl)-3,4-dihydro-2H-benzo[1,4]oxazin-6-yloxy]-pyrrolidin-1-yl}-(3-methyl-3H-imidazol-4-yl)-methanone]
273	13	COc1ncc(N2CCOc3ccc(O[C@H]4CCN(C(=O)c5ccn(C)c(=O)c5)C4)cc32)cc1C#N [Example D19, 2-Methoxy-5-{6-[(S)-1-(1-methyl-2-oxo-1,2-dihydro-pyridine-4-carbonyl)-pyrrolidin-3-yloxy]-2,3-dihydro-benzo[1,4]oxazin-4-yl}-nicotinonitrile]
341	9	COc1ncc(N2CCOc3cnc(O[C@H]4CCN(C(=O)C5CCS(=O)(=O)CC5)C4)cc32)cc1C(F)(F)F [Example E6, (1,1-Dioxo-hexahydro-1lambda*6*-thiopyran-4-yl)-{(S)-3-[1-(6-methoxy-5-trifluoromethyl-pyridin-3-yl)-2,3-dihydro-1H-pyrido[3,4-b][1,4]oxazin-7-yloxy]-pyrrolidin-1-yl}-methanone]
